According to ChEMBL document CHEMBL1201862, “PubChem BioAssay data set” (2004):
Values belong to the compound of their own block, whether it stands above or below them. The source made the active and inactive calls.

How the values were obtained:
Troponin, cardiac muscle = Troponin, cardiac muscle (Homo sapiens, UniProt P19429+P45379+P63316); assay: Fluorescence-based biochemical high throughput dose response assay for activators of the calcium sensitivity of cardiac Regulated Thin Filaments (RTF). [Related pubchem assays (depositor defined):AID493008, AID493018, AID504382, AID504383]; format: protein-complex assay
[1] = target: T1, E3 ubiquitin-protein ligase XIAP (Homo sapiens, UniProt P98170); assay: XIAP antagonists, biochemical, IAP family, fluorescence polarization (AID 1018); format: functional
[2] = target: T2, Rac GTPase-activating protein 1 (Homo sapiens, UniProt Q9H0H5); assay: MgcRacGAP GTPase-activating activity inhibitors, confirmation, biochemical, ADP Hunter fluorescence, primary and confirmatory (AID 624330); format: functional
T2 sequence (Q9H0H5 whole entry): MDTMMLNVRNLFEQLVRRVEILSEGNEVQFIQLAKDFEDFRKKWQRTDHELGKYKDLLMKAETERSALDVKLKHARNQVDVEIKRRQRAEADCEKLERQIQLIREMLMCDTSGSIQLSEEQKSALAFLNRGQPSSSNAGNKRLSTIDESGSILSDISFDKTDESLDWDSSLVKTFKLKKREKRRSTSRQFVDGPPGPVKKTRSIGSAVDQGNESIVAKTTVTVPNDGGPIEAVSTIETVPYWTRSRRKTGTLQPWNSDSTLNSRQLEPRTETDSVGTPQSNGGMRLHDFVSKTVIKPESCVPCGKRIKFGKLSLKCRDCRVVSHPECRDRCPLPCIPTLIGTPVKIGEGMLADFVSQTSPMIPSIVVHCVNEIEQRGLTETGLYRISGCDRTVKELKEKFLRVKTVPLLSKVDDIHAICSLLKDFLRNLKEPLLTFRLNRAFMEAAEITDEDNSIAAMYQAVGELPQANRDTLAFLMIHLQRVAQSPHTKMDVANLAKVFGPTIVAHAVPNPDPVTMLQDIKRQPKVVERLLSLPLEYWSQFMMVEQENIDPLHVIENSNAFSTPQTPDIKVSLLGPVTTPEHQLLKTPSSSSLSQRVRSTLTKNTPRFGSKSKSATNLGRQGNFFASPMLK

[3] = target: T1, E3 ubiquitin-protein ligase XIAP; assay: Counter Screen using XIAP-Bir3 for Chemical Antagonists of Bir1/2 domains of IAP-family anti-apoptotic proteins. [Related pubchem assays (depositor defined):AID1018, AID1449, AID1514, AID1638, AID1749, AID1750, AID488957, AID488963]
[4] = target: Glyceraldehyde-3-phosphate dehydrogenase (Homo sapiens, UniProt P04406)
[5] = target: Alkaline phosphatase, placental type (Homo sapiens, UniProt P05187); assay: PLAP enzyme inhibitors, confirmation, biochemical, luminescence (AID 1512); format: functional
[6] = target: T3, Alkaline phosphatase, tissue-nonspecific isozyme (Homo sapiens, UniProt P05186); assay: human TNAP enzyme inhibitors, SAR follow-up, biochemical, luminescent, dose response (AID 1056)
T3 sequence (P05186 whole entry): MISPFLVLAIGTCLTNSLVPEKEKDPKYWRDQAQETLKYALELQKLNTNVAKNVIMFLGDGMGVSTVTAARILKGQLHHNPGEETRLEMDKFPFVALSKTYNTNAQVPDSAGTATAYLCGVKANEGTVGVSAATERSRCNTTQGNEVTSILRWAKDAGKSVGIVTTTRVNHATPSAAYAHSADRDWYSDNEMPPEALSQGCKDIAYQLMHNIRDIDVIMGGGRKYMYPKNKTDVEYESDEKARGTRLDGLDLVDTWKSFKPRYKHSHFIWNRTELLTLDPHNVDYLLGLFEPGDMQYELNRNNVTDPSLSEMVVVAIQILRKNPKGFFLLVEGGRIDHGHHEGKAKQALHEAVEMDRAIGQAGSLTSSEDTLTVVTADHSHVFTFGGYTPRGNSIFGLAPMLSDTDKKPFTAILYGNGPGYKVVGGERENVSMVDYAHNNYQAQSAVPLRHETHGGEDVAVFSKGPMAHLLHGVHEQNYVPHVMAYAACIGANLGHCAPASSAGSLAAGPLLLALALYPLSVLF

Phosphomannomutase 2 = Phosphomannomutase 2 (Homo sapiens, UniProt O15305); assay: Counter screen SAR assay for PMM2 inhibitors via a fluorescence intensity assay. [Related pubchem assays (depositor defined):AID1545, AID1574]
[7] = target: T4, Mannose-6-phosphate isomerase (Homo sapiens, UniProt P34949); assay: PMI enzyme inhibitors, confirmation, biochemical, fluorescence intensity (AID 1535)
T4 sequence (P34949 whole entry): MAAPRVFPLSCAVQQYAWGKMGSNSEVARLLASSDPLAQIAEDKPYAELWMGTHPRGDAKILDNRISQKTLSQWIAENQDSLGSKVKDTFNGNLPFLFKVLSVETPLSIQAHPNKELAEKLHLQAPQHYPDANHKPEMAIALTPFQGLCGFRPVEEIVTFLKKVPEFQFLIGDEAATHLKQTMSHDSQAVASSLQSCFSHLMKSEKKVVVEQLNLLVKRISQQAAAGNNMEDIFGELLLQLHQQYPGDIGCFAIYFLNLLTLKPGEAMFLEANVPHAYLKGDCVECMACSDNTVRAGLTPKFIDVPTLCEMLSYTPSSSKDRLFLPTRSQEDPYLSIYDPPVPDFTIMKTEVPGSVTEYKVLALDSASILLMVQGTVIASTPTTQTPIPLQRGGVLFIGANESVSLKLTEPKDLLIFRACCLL

[8] = target: DNA damage-inducible transcript 3 protein (Mus musculus, UniProt P35639); format: functional, Cricetulus griseus
[9] = target: T5, Voltage-gated N-type calcium channel alpha-1B subunit/Amyloid beta A4 precursor protein-binding family A member 1 (Homo sapiens, UniProt Q00975+Q02410); format: protein assay
[10] = target: T5, Voltage-gated N-type calcium channel alpha-1B subunit/Amyloid beta A4 precursor protein-binding family A member 1; format: protein assay; remark: listed apart in the source
Coagulation factor XII = target: T6, Coagulation factor XII (Homo sapiens, UniProt P00748); assay: FXIIa inhibitor potency, concentration-response, biochemical (AID 716); format: functional
T6 sequence (P00748 whole entry): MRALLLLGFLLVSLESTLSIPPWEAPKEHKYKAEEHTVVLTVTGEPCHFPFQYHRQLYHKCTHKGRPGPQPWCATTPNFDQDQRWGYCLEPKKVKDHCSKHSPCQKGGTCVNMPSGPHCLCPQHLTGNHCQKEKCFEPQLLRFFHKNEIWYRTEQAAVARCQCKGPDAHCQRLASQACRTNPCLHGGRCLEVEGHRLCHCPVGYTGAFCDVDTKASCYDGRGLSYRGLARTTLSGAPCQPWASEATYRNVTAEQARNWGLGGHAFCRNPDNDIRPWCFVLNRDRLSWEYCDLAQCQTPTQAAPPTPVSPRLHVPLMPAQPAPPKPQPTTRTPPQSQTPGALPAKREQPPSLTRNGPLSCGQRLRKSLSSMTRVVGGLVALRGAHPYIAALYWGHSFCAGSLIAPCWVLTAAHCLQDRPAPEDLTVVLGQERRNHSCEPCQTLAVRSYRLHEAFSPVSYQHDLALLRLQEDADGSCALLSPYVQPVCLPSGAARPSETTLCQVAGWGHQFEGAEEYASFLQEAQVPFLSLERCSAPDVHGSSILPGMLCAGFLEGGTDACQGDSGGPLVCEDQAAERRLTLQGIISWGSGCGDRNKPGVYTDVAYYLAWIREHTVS

HEK293 [11] = assay: cells; format: functional, cell-based; settings: Homo sapiens
HEK293 [12] = assay: cells; format: functional, cell-based; settings: Homo sapiens; remark: listed apart in the source
[13] = cytotoxicity in HEK-293T cells, dose response, cytotoxicity control for TCR NF-kB inhibitor project, luminescence, T-cell screen hits (AID 489026); format: functional, cell-based;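 note: cells exposed to compound about 14 hours before the viability readout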
HEK293 [14] = assay: NOD1 signaling inhibitors, primary screen, cell-based, luminescence, uHTS (AID 1578); format: functional; settings: Homo sapiens
HEK293 [15] = assay: cells; format: functional, cell-based; settings: Homo sapiens; remark: listed apart in the source
[16] = target: Nucleotide-binding oligomerization domain-containing protein 2 (Homo sapiens, UniProt Q9HC29); assay: NOD2 signaling inhibitors, cell-based, luminescence, uHTS, HEK293 (AID 1566); format: functional
HEK293 [17] = assay: NOD2 signaling inhibitors in MDP-stimulated cells, cell-based, uHTS, luminescence (AID 2001); format: functional; settings: Homo sapiens

EC50 (Troponin, cardiac muscle): 3.73 µM (active)
SMILES: CCCN1CCc2c(sc(NC(=S)NC(=O)c3ccccc3)c2C#N)C1

EC50 (Troponin, cardiac muscle): > 71.5 µM (inactive)
SMILES: CCc1ccc2c(COC(=O)CNS(=O)(=O)c3ccc(NC(C)=O)cc3)cc(=O)oc2c1

IC50 [1]: > 100 µM (not active)
IC50 [2]: 230 µM (active)
IC50 [3]: > 100 µM (inactive)
SMILES: O=C(/C=C/Nc1ccc(Nc2ccccc2)cc1)c1cccs1

IC50 [4]: > 100 µM (not active)
IC50 [5]: > 100 µM (inactive)
IC50 [6]: 2.52 µM (active)
SMILES: O=C(c1cc(-c2ccc(Cl)cc2Cl)n[nH]1)N1CCCCC1

IC50 (Phosphomannomutase 2): > 100 µM (inactive)
IC50 [7]: > 100 µM (inactive)
SMILES: Oc1ccc(/N=c2\ssnc2Cl)cc1

IC50 [5]: 78.5 µM (active)
IC50 [6]: > 100 µM (inactive)
SMILES: CCCCN1C(=O)/C(=N\Nc2ccccc2F)c2ccccc21

SMILES: CCCCNS(=O)(=O)c1ccc2nc(-c3cccnc3)cc(C(=O)NC3CCCC3)c2c1
Absolute IC50 (CHOP) [8]: 10 µM

IC50 [9]: > 50 µM (inactive)
IC50 [10]: > 56.8 µM (not active)
SMILES: COC(=O)c1ccc(COc2ccc(/C=N/Nc3nc(C)cc(O)n3)cc2)cc1

IC50 (Coagulation factor XII): > 50 µM (inactive)
SMILES: C=CCOC(=O)C1=C(C)N=C(C)/C(=C(/O)OCC=C)C1c1ccc(O)cc1 (stereo not drawn)

SMILES: COC(=O)Cc1nn(-c2nc3ccccc3s2)c(O)c1/C(C)=N/c1ccc(OC)cc1
IC50 (HEK293 [11]): 1.13 µM (active)
IC50 (HEK293 [12]): > 20 µM (inactive)
IC50 [13]: > 80 µM (inactive)
EC50 (HEK293 [14]): < 0.31 µM (inactive)
IC50 (HEK293 [15]): > 20 µM (inactive)
EC50 [16]: 0.1 µM (active)
IC50 (HEK293 [17]): 0.103 µM (active)
